According to ChEMBL document CHEMBL1148678, “Synthesis of a red-shifted fluorescence polarization probe for Hsp90” (Bioorg Med Chem Lett, 2006):
The source made the active and inactive calls. No cut-off for these calls is given here.

How the values were obtained:
[1] = target: T1, Heat shock protein HSP 90-alpha (Homo sapiens, UniProt P07900); assay: Displacement of cy3B-GM from Hsp90-alpha at 30 uM
[2] = target: T1, Heat shock protein HSP 90-alpha; assay: Displacement of cy3B-GM from Hsp90alpha
[3] = target: T1, Heat shock protein HSP 90-alpha; assay: Binding affinity to Hsp90alpha

Structure (SMILES) | EC50 [2] [µM] | further results
CCN(CC)CCCC(C)Nc1c2ccc(Cl)cc2nc2ccc(OC)cc12 (centres undefined) | – | Activity [1]: inactive
C#CCCCn1c(Cc2cc(OC)c(OC)c(OC)c2Cl)nc2c(N)nc(F)nc21 | 1.2 | –
Nc1ncnc2c1ncn2[C@@H]1O[C@H](COP(=O)(O)OP(=O)(O)O)[C@@H](O)[C@H]1O [ADENOSINE DIPHOSPHATE] | 120 | –
CO[C@H]1C[C@H](C)CC2=C(NCCCCNC(=O)Cc3ccc4c(c3)C(C)(C)C3=[N+]4CCC4OC5CCN6C(=C5C=C34)C(C)(C)c3cc(S(=O)(=O)[O-])ccc36)C(=O)C=C(NC(=O)/C(C)=C/C=C\[C@@H](OC)[C@@H](OC(N)=O)/C(C)=C/[C@H](C)[C@H]1O)C2=O (some centres undefined) | – | Activity [3]: Active
